Source: patent US6949528B1, “Compositions containing lysophosphatidic acids which inhibit apoptosis and uses thereof” (priority 1998, dated 2005)

B1: Ovalbumin: ovalbumin from chicken egg (protein, UniProt P01012 2-386, looked up)
Ovalbumin: GSIGAASMEFCFDVFKELKVHHANENIFYCPIAIMSALAMVYLGAKDSTRTQINKVVRFDKLPGFGDSIEAQCGTSVNVHSSLRDILNQITKPNDVYSFSLASRLYAEERYPILPEYLQCVKELYRGGLEPINFQTAADQARELINSWVESQTNGIIRNVLQPSSVDSQTAMVLVNAIVFKGLWEKAFKDEDTQAMPFRVTEQESKPVQMMYQIGLFRVASMASEKMKILELPFASGTMSMLVLLPDEVSGLEQLESIINFEKLTEWTSSNVMEERKIKVYLPRMKMEEKYNLTSVLMAMGITDVFSSSANLSGISSAESLKISQAVHAAHAEINEAGREVVGSAEAGVDAASVSEEFRADHPFLFCIKHIATNAVLFFGRCVSP

Key:
[1] = tested on: rat neonatal cardiomyocytes; experiment: Cardiomyocyte death induced by ischemia and reperfusion; assay type: cell-based; details: in mixture with PEG, FIG. 14
Method: (§1) Cardiomyocytes were prepared from hearts of day-old Sprague Dawley rats by trypsinization and mechanical disaggregation (Simpson, (1985)) Circ. Res. 56:884-894. The cells were resuspended in MEM, 1×MEM vitamins (Gibco), 5% fetal bovine serum and 50 U/ml penicillin-G and pre-plated for 30 minutes to reduce contamination of non-myocytes. The non-adherent cardiac myocytes were separated and seeded in 2 ml in 35 mm dishes at a density of 3.5×10^5 viable cells per ml. The cells were allowed to adhere for 16-24 hours in a 37° C./5% CO2 humidified incubator.
For serum deprivation, the medium was replaced with fresh serum-free RPMI, whereas serum/glucose deprivation was performed using glucose-free RPMI. The induction of cell death by adriamycin or C2-ceramide was accomplished by the addition of the agent prepared in serum-free RPMI. As a model of ischemia, cultures in serum and glucose free RPMI were placed in an airtight chamber and the latter was continuously perfused with oxygen-free gas overlay of 95% N2/5% CO2 for 8 hours at 37° C. […]
(§2) Because cardiomyocytes are terminally differentiated non-dividing cells, viability was determined by measurement of the decrease in the relative number of adherent cells. […] Adherent cardiomyocytes were collected from culture dishes using 0.25% Trypsin/0.05% EDTA and counted on Coulter Counter ZM and Coulter Channelyzer 256.

C3H/10T1/2 cells [2] = experiment: Anti-apoptotic activity assay: serum deprivation of C3H/10T1/2 cells; assay type: cell-based
Excerpt: In order to determine the […] of the claimed invention, the following method of analysis was used. The cell assay is described in detail in U.S. Pat. Nos. 5,637,486, 5,620,888, and 5,681,703, and Tomei et al. (1993) Proc Natl. Aci. 90:853-857. Briefly, mouse fibroblast C3H/10T1/2 cells (clone 8) were obtained from ATCC (Rockville, Md.) and were maintained in exponential growth phase in which the cell cycle is randomly distributed and no cells are arrested in G0, and in quiescence. Exponential growth phase was assured by seeding at 2000 cells per 1 ml (5 ml for 60 mm culture plate) five days prior to the beginning of the experiment. Assays were performed on cells only up to passage 15. At T=0, cultures were transferred to serum-free medium, as an appropriate stimulus, and seed extracts were added. Controls included 10^−7 and 5×10^−8 M 12-O-tetradecanoyl phorbol-13-acetate (TPA) to ensure the responsiveness of the cell culture. The samples were added to serum free medium and sterile filtered prior to addition to the cultures. Assays were performed in triplicate or quadruplicate. Analyses of the cell responses were made between 18 and 28 hours of serum deprivation. Two assays were performed on each cell culture plate consisting of differential cell counts.
1. All non-adherent or loosely adherent cells were removed from the culture dish and counted by appropriate techniques, typically counting by electronic particle counting instrument. These are the apoptotic cells, the serum deprived released cells (SDR), released by the action of cultivation in serum-free medium. Approximately 95% of these released cells are apoptotic as shown by both ultrastructure analysis and DNA fragmentation analysis.
2. The remaining adherent cells (ADH) were exposed to a buffered, typically pH 7.3, balanced salt solution such as a Hanks Balanced Salt Solution without calcium and magnesium salts containing 0.05% trypsin and 0.53 mM ethylene diaminetetraacetic acid (EDTA). Each culture was incubated at either room temperature or 37(C on a rocking platform to ensure uniform distribution of the trypsin reagent over the culture surface. After a standardized period of time, typically 10 minutes, the released cells were removed from each culture dish and measured by the same means as described above, typically electronic particle counting. This ADH cell count is comprised of both trypsin resistant and trypsin sensitive cells as described in U.S. Pat. Nos. 5,637,486, 5,620,888, and 5,681,703.
Anti-apoptotic activity is expressed in the following examples as the calculated concentration of material ((g/ml of media) required to save 50% of the cells released on serum free treatment.
The ability of 18:1-LPA an other LPAs to protect serum-starved cells from apoptotic death was measured using the C3H/10T1/2 cell assay, performed as described in Example 2. The effect of various compounds on the ability of lysophosphatidic acid to protect serum-starved cells from apoptotic death was also measured. Log phase cells were seeded in 60 mm Petri dishes at 175-350 cells per cm2 and maintained in Basal Medium Eagle (BME) supplemented with 10% Heat Inactivated Fetal Bovine Serum (HIFBS). On day 3 the cells were given fresh media. Treatment began on day 5 when the media containing serum was removed and replaced with the LPA mixture to be tested. After 24 hours of treatment, day 6, serum deprived released (SDR) cells (the […] cell population) and adherent (ADH) cells were separated and counted using an electronic cell counter (Coulter Corporation, Hialea, Fla.). […]

[3] = tested on: rat neonatal cardiomyocytes; experiment: Cardiomyocyte death induced by serum/glucose deprivation; assay type: cell-based; details: serum/glucose deprivation
Method: as §1
For serum deprivation, the medium was replaced with fresh serum-free RPMI, whereas serum/glucose deprivation was performed using glucose-free RPMI. The induction of cell death by adriamycin or C2-ceramide was accomplished by the addition of the agent prepared in serum-free RPMI. As a model of ischemia, cultures in serum and glucose free RPMI were placed in an airtight chamber and the latter was continuously perfused with oxygen-free gas overlay of 95% N2/5% CO2 for 8 hours at 37° C. To model reperfusion of the ischemic cells, 10% fetal bovine serum, 2 g/L of glucose were added and the cultures were returned to a normal oxygen gas overlay (37° C./5% CO2) in a humidified incubator for 16 hours.
T investigate effects of LPA, LPA plus other phospholipids, PEG or their mixtures on cell death, various combinations of these components were added to cells in serum free medium at the beginning of cytotoxic treatment.
as §2

C3H/10T1/2 cells [4] = experiment: Effect of proteins on anti-apoptotic activity of soy LPA, C3H/10T1/2 cell assay; assay type: cell-based; details: for Protein +10 (g/mL Soy LPA, percent cells saved from apoptosis): 1:10 soy-LPA to protein (weight:weight); for Protein +10 (g/mL Soy LPA, percent cells saved from apoptosis) / Protein Alone (0.01%), percent cells saved from apoptosis: 24 hours serum deprivation; for Increase with LPA: difference protein + soy LPA minus protein alone; for Protein Alone (0.01%), percent cells saved from apoptosis: protein without LPA; for enhancement of the anti-apoptotic activity of soy-LPA (more than additive protection): soy-LPA added together with protein
Method: Soy derived LPA (soy-LPA) (Avanti® Polar Lipids, Inc., Alabaster, Ala.) was stored in an organic solution and was dried immediately prior to assay using a Speed Vac (Savant Instruments, Hicksville, N.Y.). Tested proteins were resuspended at 10_mg/mL in a bicarbonate buffered saline/EDTA solution (50_mM NH4HCO3, […] NaCl, 250_(M EDTA) prior to being added to dried soy-LPA at a 1:10_soy-LPA to protein (weight:weight) ratio. The mixture was then sonicated for 5 minutes using a high power 80 Watt sonication bath (Laboratory Supplies Co., Hicksville, N.Y.). Following sonication, concentrated LPA/protein mixtures were left standing for 15 minutes at room temperature prior to dilution in cell culture assay media.
The effect of various proteins on the ability of LPA to protect serum-starved cells from apoptotic death was measured using the C3H/10T1/2 cell assay, performed as described in Example 2, above. Log phase cells were seeded in 60 mm Petri dishes at 175-350 cells per cm^2 and maintained in Basal Medium Eagle (BME) supplemented with 10% fetal calf serum (Hyclone, Logan, Utah). At time zero, serum containing media was replaced with sterile filtered BME containing the LPA/protein mixture to be tested. After 24 hours of treatment, serum deprived release (SDR) cells (the apoptotic cell population) and adherent (ADH) cells were separated and counted using an electronic cell counter (Coulter Corporation, Hialea, Fla.). SDR cells were counted with the lower threshold setting at 6.3_(m and were defined as the apoptotic cells dying in response to cultivation in serum-free-media. Approximately 95% of the SDR cells are confirmed to be apoptotic as previously shown by size, ultrastructure and DNA fragmentation analysis. Adherent cells were removed by treatment with a Hanks' balanced salt solution containing 0.05% trypsin and 0.53_mM EDTA and were counted with the lower threshold setting at 11.01_(m. All samples were tested in triplicate and serum-deprived controls (BME only) were assayed at both the beginning and end of each experiment.

[5] = Electrophoresis radiobinding assay (native polyacrylamide gel); assay type: binding; details: FIG. 9 and other experiments
Method: Electrophoresis radiobinding assay. Proteins were analyzed on native polyacrylamide gels following incubation with ^3H-labeled 18:1-LPA. ^3H-labeled lysophosphatidic acid (1-oleyl) (DuPont NEN Products, Boston, Mass.) was added to tested proteins at 1 nM labeled 18:1-LPA/45_(g protein. Mixtures were incubated at a bicarbonate buffered saline/EDTA solution at 37° C. for 60 minutes. Incubated samples were mixed with native gel sample buffer (312_mM Tris pH 6.8, 50% glycerol, 0.05% bromophenol blue) and loaded entirely onto an 8% discontinuous native polyacrylamide gel. Following electrophoresis, proteins were fixed into the gels using an aqueous solution consisting of glacial acetic acid, 10% (vol/vol) and methan 130% (vol./vol.) solution. Fixed gels were then incubated for 60 minutes in autoradiography enhancer (EN^3HANCE, DuPont NEN Products, Boston, Mass.), and dried onto 3M chromatography paper (Whatman, Clifton, N.J.) and exposed to autoradiography film (X-Omat, Kodak, Rochester, N.Y.) for 72 hours at −80° C.

[6] = Size shift assay (Superdex S75 column); assay type: binding; details: FIGS. 10A-10D
Method: Size shift assay. Size analysis of LPA both with and without protein was performed using a Superdex® S75 column (Pharmacia Biotech, Uppsala, Sweden). Soy LPA was combined in a chloroform solution with 0.5 Ci^3H-labeled 18:1-LPA (DuPont NEN Products, Boston, Mass.), dried under vacuum and resuspended by sonication in a buffered solution (50 mM ammonium bicarbonate, 154 mM sodium chloride, pH 8.0) in the presence or absence of test protein. The ammonium bicarbonate/sodium chloride solution was used as the mobile phase at a flow rate of 1 ml/min. One-minute fractions were collected for 30 minutes following sample injection. Fractions were counted in scintillant solution using a liquid scintillation counter (Beckman Instrument, Irvine, Calif.). Calibration was performed using a standard solution containing purified proteins (BioRad, Hercules, Calif.).

[7] = serum-deprived C3H/10T1/2 cells, 24 hours of treatment

| Molecule | Protein +10 (g/mL Soy LPA, percent cells saved from apoptosis) (C3H/10T1/2 cells [4]) | Increase with LPA (C3H/10T1/2 cells [4]) | Protein Alone (0.01%), percent cells saved from apoptosis (C3H/10T1/2 cells [4]) [%] | enhancement of the anti-apoptotic activity of soy-LPA (more than additive protection) (C3H/10T1/2 cells [4]) | binding to 18:1-LPA, detectable band [5] | elution profile / binding of LPA to protein [6] | other results |
| --- | --- | --- | --- | --- | --- | --- | --- |
| CCCCCCCC/C=C\CCCCCCCC(=O)OCC(O)COP(=O)(O)O (centres unmarked) [18:1 LPA, oleoyl-lysophosphatidic acid, reference compound] | – | – | – | – | – | – | protection against cardiomyocyte death [1]: equally protect; cells protected (C3H/10T1/2 cells [2]; 0.75 (g/ml added together with PS, FIG. 2)): approximately 75%; cells protected (C3H/10T1/2 cells [2]; 1:1 PG:PC particles with 23.5% by weight 18:1-LPA, FIG. 3): about 57%; cells protected (C3H/10T1/2 cells [2]; 5 (M, FIG. 5), medium alone 30%): about 62%; cells protected (C3H/10T1/2 cells [2]; 5 (M, FIG. 6)): 75%; cells protected (C3H/10T1/2 cells [2]; 15 (M, FIG. 6)): 80%; efficacy (C3H/10T1/2 cells [2]; 18:1-LPA/PG particles with 5 to 10 mol % PE-PEG (2000 MW), FIG. 2): reduced efficacy; cells saved (C3H/10T1/2 cells [2]; 23.5 weight percent with PG, FIG. 3): about 50%; cells protected (C3H/10T1/2 cells [2]; 30% (by weight) mixture with 1:1 PA:PI, equivalent to Five Phospholipid Mixture at 10 (g/ml, FIG. 7), medium alone 38%): about 82%; cells protected from apoptosis (C3H/10T1/2 cells [2]; LPA equivalent to 10 (g/ml Five Phospholipid Mixture, 10% by weight with PG, FIG. 3)): approximately 65%; anti-apoptotic activity (C3H/10T1/2 cells [2]; combined with BME (containing calcium) and filtered): appeared to be inhibited; anti-apoptotic activity (C3H/10T1/2 cells [2]; combined with BSA in BME (containing calcium)): preserved the anti-apoptotic activity; protection from apoptosis (C3H/10T1/2 cells [2]; combined with polyethylene glycol or BSA): protects serum-deprived 10T1/2 cells from apoptosis; protection from serum deprivation-induced cell death (C3H/10T1/2 cells [2]; incorporated into PC, PC/PE-PEG, or PC/EtPC, FIG. 8): effective in protecting cells from serum deprivation-induced cell death; cells protected (C3H/10T1/2 cells [2]; incorporated into phosphatidyl glycerol (PG), FIG. 2): up to 90%; Concentration for Max Effect (C3H/10T1/2 cells [2]; [7]): 10 µM; Maximum effect relative to 18:1 LPA (C3H/10T1/2 cells [2]; [7]): 100%; Concentration ranges for cardiomyocyte protection [3]: 0.3 to 10 µM; Maximum effect relative to 18:1 LPA in cardiomyocytes [3]: 100% |
| Acyl Carrier Protein: acyl carrier protein from E. coli | 36.2% | +28.1% | 8.1 | to a lesser degree | did not yield detectable bands | – | – |
| Albumin (Fatty Acid Depleted): fatty acid depleted (FAD) bovine serum albumin (BSA) | 58.7% | +57.8% | 0.9 | – | bind to 18:1-LPA | most of the LPA was bound to BSA | – |
| Cytochrome C: cytochrome C from bovine heart | 54.6% | +38.4% | 16.2 | – | – | LPA does not bind to this protein | – |
| B1 | 15.I | +7.2% | 7.9 | did not enhance | produce a detectable band | – | – |
